Square brackets hold non-standard residues; d marks the D form. Ends that are not written are not given here. pGlu = O=C1CC[C@@H](C(=O)O)N1
Assays:
[1] = tested on: hepatitis B virus (HBV) ayw strain; test: HBV experimental assay system, secreted HBV DNA by TaqMan PCR; format: cell-based; details: 10 micrograms per ml; HepG2-2.2.15 cells; six days
[2] = tested on: spleen cells of Ovalbumin-immunized Balb/c mice; test: Th1/Th2 cytokine profiling assay; format: cell-based, mouse; details: 10 micrograms per ml; Ovalbumin restimulation; 72 hours
Excerpt: The Balb/c mice (originated in 1923, it is a popular strain and is used in many different research disciplines. Also classified as an inbred from the production of 20 or more successive brother-sister matings, the Balb/c mouse is albino and small in size) were immunized on Days 1, 15, and 29 with Ovalbumin (Ovalbumin is the main protein found in egg white, commonly used to stimulate an immunological reaction in test animals) in PBS (5 micrograms/injection). On day 50, spleens of the mice were harvested (3 weeks after last boost with Ovalbumin). Cells were cultured (2×10^5/well in triplicate) and incubated with culture medium or test peptides—10 micrograms per ml—for 30 min. Thereafter, additional Ovalbumin was added to the cells at 10 micrograms/ml for in vitro restimulation of the cells. 72 hours later, cell supernatants were harvested and assayed using the Becton Dickinson Mouse Th1/Th2 Cytokine CBA Kit.

[3] = tested on: Primary Human endothelial cells (HUVEC); test: Endothelial cell migration assay; format: cell-based; details: 10 micrograms per ml, 22 hours
Procedure: Thereafter, designated concentration of testing peptides—10 micrograms per ml—was added in duplicate wells.

[4] = tested on: HUVEC; test: Endothelial tube formation assay; format: cell-based, human; details: 10 micrograms per ml, 20 hours
Excerpt: Positive control was vehicle only. […] Raw data were expressed as average tubule lenghs in pixels±standard deviation.

[5] = tested on: RAW 264.7 cells; test: Phagocytosis assay; details: 10 micrograms per ml, Fluorescein-labeled Escherichia coli
[6] = tested on: HCMV strain AD169; test: HCMV plaque formation assay in MRC-5 cells; details: 10 micrograms per ml, 7-10 days
Excerpt: Cells were split twic a week 1:2.
Ganciclovir was used as positive control.

Substance | inhibition of HBV replication as compared to the virus control infection [1] | IFNγ spleen cells; TH1 response (% of control) [2] | IL-2 spleen cells (% of control) [2] | IL-4 spleen cells; TH2 response (% of control) [2] | IL-5 spleen cells; TH2 response (% of control) [2] | TNF-a spleen cells; TH1 response (% of control) [2] | induction of the migration of human endothelial cells [3] [%] | inhibition of the tube formation of human endothelial cells [4] [%] | induction of phagocytosis as compared to the virus control experiment [5] | inhibition of HCMV plaque formation as compared to the virus control experiment [6]
Pyr-Ala-Asp-Pro-Asn-Lys-Phe-Tyr-Gly-Leu-Met-NH2 ([pGlu]ADPNKFYGLM-NH2; SMILES CSCC[C@H](NC(=O)[C@H](CC(C)C)NC(=O)CNC(=O)[C@H](Cc1ccc(O)cc1)NC(=O)[C@H](Cc1ccccc1)NC(=O)[C@H](CCCCN)NC(=O)[C@H](CC(N)=O)NC(=O)[C@@H]1CCCN1C(=O)[C@H](CC(=O)O)NC(=O)[C@H](C)NC(=O)[C@@H]1CCC(=O)N1)C(N)=O) [peptide 2] | no effect | 74.2 % of control | 0.0 % of control | 0.0 % of control | 53.0 % of control | 85.7 % of control | 15 | 6 | did not induce phagocytosis | did not show any inhibition
Gly-Leu-Ser-Lys-Gly-Cys-Phe-Gly-Leu-Lys-Leu-Asp-Arg-Ile-Gly-Ser-Met-Ser-Gly-Leu-Gly-Cys-OH (GLSKGCFGLKLDRIGSMSGLGC-OH; cysteine pairing not given here) [peptide 1] | 10.1% | 140.2 % of control | 52.2 % of control | 0.0 % of control | 56.3 % of control | 111.8 % of control |  | 22 | 42.9% | did not show any inhibition

Source: patent US20100249017A1, “USE OF CNP-22, ALONE OR IN COMBINATION WITH PHYSALEMIN, AS A THERAPEUTIC AGENT” (priority 2007, published 2010)
